Results: patent US20030207843A1, “Treatment of drug-resistant human immunodeficiency virus infection” (priority 1999, published 2003)
Like-named read-outs stand apart in the source and are kept apart here.

What was measured:
Format in all cases: cell-based
[1] = system: HIV-1LAI (wild type, control); test: p24 reduction assay in MT-2 cells, wild type virus
Experimental: (§1) Cells. MT-2 cells (AIDS Research and Reference Reagent Program, National Institute of Allergy and Infectious Diseases, National Institutes of Health) were maintained in RPMI 1640 supplemented with 10% fetal bovine serum (FBS; JRH Biosciences, Lenexa, Kans.), 10 mM HEPES buffer, 50 IU/ml penicillin and 50 μg/ml streptomycin.
Viruses. Stock virus was prepared by electroporating (BIO-RAD Gene Pulser®, Hercules, Calif.) MT-2 cells (1.3×10^7 cells) with 5-10 μg of plasmid DNA encoding a proviral clone of HIV-1LAI (see Nguyen, et. al., Antimicrob. Agents Chemother. 38:2409-2414, and Peden, et. al., Virology 185: 661-672.). At peak cytopathic effect (generally 5-7 days post-transfection), culture supernatants were harvested and stored at −80° C. Viral infectivity titers were determined in threefold endpoint dilution assays conducted in MT-2 cells (six wells per dilution). The 50% tissue culture infective dose (TCID50) was calculated using the Reed and Muench equation (see Reed, et. al., Am. J. Hyg. 27:493-496).
Antiviral Susceptibility Assays. The antiviral activity of each compound […], followed by incubation in the presence of three-fold serial drug dilutions (3 wells per dilution) (see Mellors, et. al., Antimicrob. Agents Chemother. 39:1087-1092). Five or seven days after infection, culture supernatants were harvested, lysed with 0.5% triton-X 100 and assayed for p24 antigen concentration using a commercial ELISA assay (DuPont, NEN Products, Wilmington, Del.). The antiviral activity of the compounds is expressed as the IC50, which is the concentration required to inhibit 50% of p24 antigen production. The fold-resistance of a test virus is calculated by dividing the IC50 of the test virus by the IC50 of the HIV-1LAI control virus.
Cultures of MT-2 cells infected with either wild type (xxLAI) or with the drug-resistant strains of HIV-1 listed above were treated with lipid analogs of PFA (B-PFA, MB-PFA, or EB-PFA). The μM concentration required to produce 50% inhibition of replication of the drug-resistant strain of HIV (EC50) was determined as shown in Table 1. Drug effects were measured by assaying p24 (a viral protein) in the culture medium.

[2] = system: HIV-1LAI K65R; test: p24 reduction assay in MT-2 cells, K65R; conditions: for EC50: K65R; for Fold-resistance: K65R relative to wild type virus
Experimental: as §1
(§2) Antiviral Susceptibility Assays. The antiviral activity of each compound was determined by inoculating MT-2 cells with HIV-1LAI at a multiplicity of infection (MOI) of 0.01 TCID50/cell, followed by incubation in the presence of three-fold serial drug dilutions (3 wells per dilution) (see Mellors, et. al., Antimicrob. Agents Chemother. 39:1087-1092). Five or seven days after infection, culture supernatants were harvested, lysed with 0.5% triton-X 100 and assayed for p24 antigen concentration using a commercial ELISA assay (DuPont, NEN Products, Wilmington, Del.). The antiviral activity of the compounds is expressed as the IC50, which is the concentration required to inhibit 50% of p24 antigen production. The fold-resistance of a test virus is calculated by dividing the IC50 of the test virus by the IC50 of the HIV-1LAI control virus.
(§3) Generation of Mutant Recombinant HIV-1. HIV-1 containing the desired mutations were generated by oligonucleotide directed mutagenesis (Altered Sites II, Promega) as previously described (Mellors, et. al., Molecular Pharm. 41:446-451). After mutagenesis, mutant RT was subcloned into the pxxHIV-1LAI cloning vector using the silent XmaI and XbaI restriction sites located at the 5′ and 3′ ends of RT. Clones were DNA sequenced to verify the presence of the desired mutation(s) and electroporated into MT-2 cells as described above to generate infectious mutant recombinant HIV-1.
(§4) Mutant RT was generated via oligonucleotide-directed mutagenesis and ligated into the pXXHIV-1LAI cloning vector. Cloning was facilitated by the presence of two silent restriction sites at the 5′ and 3′ ends (Xma1 and Xba1, respectively) of pXXHIV-1LAI RT. Infectious mutant recombinant HIV-1 was generated by electroporating MT-2 cells with mutated pXXHIV-1LAI clones. The presence of the desired mutations was verified by DNA sequencing.
(§5) The multi-drug resistant HIV-1 strains, 11163p1 and 11588p1, are human clinical isolates having the RT mutations indicated. HIV-1 strains treated with the lipid analogs of the present invention include wild type, e.g., xxLAI, and the like, single mutation, e.g., xxLAI MI 84V (resistant to 3TC), xxLAI L74V (resistant to ddI and ddC), xxLAI K65R (resistant to ddI, ddC, DAPD, DXG, tenofovir, and adefovir), xxLAI T215Y (resistant to AZT), and the like, double mutations, e.g., xxLAI M41 L/T215Y (resistant to AZT), xxLAI MI 84V/T215Y (resistant to 3TC and AZT), and the like, and multiple mutations, e.g., xxLAI 4XAZT ((D67N, K70R, T215Y, K219Q) resistant to AZT)), xxLAI 4XAZT/M184V ((D67N, K70R, M 184V, T215Y, K219Q) resistant to AZT and 3TC), xxLAI M5456-12 (AZT+NNRTI resistant: D67N, K70R, K103N, T215Y), xxLAI G2-3g (AZT/3TC co-resistant: M41L, D67N, M184V, H208Y, L210W, R211K, L214F, T215Y, 1293V, E297A), 11163 (multinucleoside resistant virsus: M41L, A62V, V751, F77L, K103N, F116Y, Q151M, Y181C, M184V), 11588 (multinucleoside resistant virsus: A62V, K65R, K70R, V751, F77L, F116Y, Q151M, M184V, K219Q), and the like.

[3] = system: HIV-1LAI 4XAZT/M184V; test: p24 reduction assay in MT-2 cells, 4XAZT/M184V; conditions: for Fold-resistance: 4XAZT/M184V relative to wild type virus
Experimental: as §1, §2, §3, §4, §5

[4] = system: HIV-1LAI E89K; test: p24 reduction assay in MT-2 cells, E89K; conditions: Table 7; for EC50: E89K; for Fold-resistance: E89K relative to wild type virus
Experimental: as §1, §2, §3, §4
Invention compounds were also evaluated against a panel of HIV-1LAI derived recombinants resistant to PFA and the PFA invention compounds, as shown in Table 7.

[5] = Table 1, HIV-1LAI(control), MOI 0.01, p24, MT-2 cells, read-out: EC50
[6] = Table 2, HIV-1LAI(control), MOI 0.05, read-out: EC50
[7] = Table 3, Wild type, mean ± SD, at least three experiments, read-out: EC50
[8] = Table 4, HIV-1LAI wild type, mean ± SD, two or three experiments, read-out: EC50
[9] = Table 5, Wild type, mean ± SD, read-out: EC50
[10] = Table 1, 4xAZT/M184V, MOI 0.01, read-out: EC50
[11] = Table 5, 4XAZT/M184V, mean ± SD, read-out: EC50
[12] = Table 6, baseline virus HIV-1LAI passage 0, read-out: EC50

Row | SMILES | EC50 [1, 5] [nM] | EC50 [1, 6] [nM] | EC50 [1, 7] [nM] | EC50 [1, 8] [nM] | EC50 [1, 9] [nM] | EC50 ([2]; Table 1, MOI 0.01) [nM] | Fold-resistance ([2]; Table 3) | EC50 ([2]; Table 3, mean ± SD) [nM] | EC50 [3, 10] [nM] | Fold-resistance ([3]; Table 5) | EC50 [3, 11] [nM] | EC50 [4] [nM] | Fold-resistance [4] | EC50 [1, 12] [nM] | other results
1 | Cc1cn([C@H]2C[C@H](N=[N+]=[N-])[C@@H](CO)O2)c(=O)[nH]c1=O [AZT, 3′-Azido-3′-deoxythymidine] | – | – | – | – | – | – | – | – | – | – | – | – | – | – | EC50 ([1]; Human immunodeficiency virus 1, MT2, Table 8, Wild type, mean ± SD, read-out: AZT EC50): 21 ± 8 nM
2 | CCCCCCCCCCCCCCCCCCOC[C@@H](O)COP(=O)(O)C(=O)O [B-PFA, 1-O-octadecyl-sn-glycero-3-PFA] | 1900 | 3010 | 1790 ± 810 | 1800 ± 810 | 1790 ± 810 | 17700 | (8.2) | 14700 ± 6610 | 2290 | (1.3) | 2290 ± 1590 | > 30000 | (>17.2) | – | –
3 | CCCCCCCCCCCCCCCCCCOC[C@H](COP(=O)(O)C(=O)O)OCC [EB-PFA, 1-O-octadecyl-2-O-ethyl-sn-glycero-3-PFA] | 220 | 760 | 650 ± 360 | 700 ± 360 | 650 ± 360 | 3220 | (4.5) | 2910 ± 1300 | 580 | (0.9) | 560 ± 80 | 5210 | – | 90 | –
4 | CCCCCCCCCCCCCCCCCCOC[C@H](COP(=O)(O)C(=O)O)OC [MB-PFA, 1-O-octadecyl-2-O-methyl-sn-glycero-3-PFA] | 350 | 1040 | 500 ± 480 | 500 ± 480 | 500 ± 480 | 1240 | (3.3) | 1660 ± 720 | 480 | (1.2) | 590 ± 360 | 7210 | 0.12 (9.4) | 70 | –
5 | O=C(O)P(=O)(O)O [PFA, phosphonoformate, reference compound] | – | – | – | – | – | – | (3.8) | – | – | (1.3) | – | – | 46.24 (6.9) | – | EC50 ([1]; Human immunodeficiency virus 1, MT2, Table 1, HIV-1LAI(control), MOI 0.01, p24, MT-2 cells, read-out: EC50): 18300 nM; EC50 ([1]; Human immunodeficiency virus 1, MT2, Table 2, HIV-1LAI(control), MOI 0.05, read-out: EC50): 20100 nM; EC50 ([1]; Human immunodeficiency virus 1, MT2, Table 3, Wild type, mean ± SD, at least three experiments, read-out: EC50): 17700 ± 10100 nM; EC50 ([1]; Human immunodeficiency virus 1, MT2, Table 4, HIV-1LAI wild type, mean ± SD, two or three experiments, read-out: EC50): 17700 ± 10100 nM; EC50 ([1]; Human immunodeficiency virus 1, MT2, Table 5, Wild type, mean ± SD, read-out: EC50): 17700 ± 10100 nM; EC50 ([1]; Human immunodeficiency virus 1, MT2, Table 6, baseline virus HIV-1LAI passage 0, read-out: EC50): 5270 nM; EC50 ([1]; Human immunodeficiency virus 1, MT2, Table 7, Wild type, mean (SD in next grid row), read-out: EC50): 13100 nM; EC50 ([2]; Human immunodeficiency virus 1, MT2, Table 1, MOI 0.01): 57300 nM; EC50 ([2]; Human immunodeficiency virus 1, MT2, Table 3, mean ± SD): 67000 ± 22800 nM; EC50 ([3]; Human immunodeficiency virus 1, MT2, Table 1, 4xAZT/M184V, MOI 0.01): 15700 nM; EC50 ([3]; Human immunodeficiency virus 1, MT2, Table 5, 4XAZT/M184V, mean ± SD, read-out: EC50): 22700 ± 15800 nM; EC50 ([4]; Human immunodeficiency virus 1, MT2): 90200 nM
